Laboratory results: ChEMBL document CHEMBL1201862, “PubChem BioAssay data set” (2004)
One block for each compound: values may come before it. The source made the active and inactive calls.

Legend:
NS3 = NS3 (Hepatitis C virus, UniProt A3EZJ3); assay: PubChem AID 2173; parameters: species or system Hepacivirus hominis
[1] = biological target: Lysosomal acid glucosylceramidase (Homo sapiens, UniProt P04062); assay: Dose response cell-based high throughput screening assay to identify enhancers of beta-glucosidase activity. [Related pubchem assays: 784 ]; assay type: functional
Sequence of Lysosomal acid glucosylceramidase (P04062 whole entry): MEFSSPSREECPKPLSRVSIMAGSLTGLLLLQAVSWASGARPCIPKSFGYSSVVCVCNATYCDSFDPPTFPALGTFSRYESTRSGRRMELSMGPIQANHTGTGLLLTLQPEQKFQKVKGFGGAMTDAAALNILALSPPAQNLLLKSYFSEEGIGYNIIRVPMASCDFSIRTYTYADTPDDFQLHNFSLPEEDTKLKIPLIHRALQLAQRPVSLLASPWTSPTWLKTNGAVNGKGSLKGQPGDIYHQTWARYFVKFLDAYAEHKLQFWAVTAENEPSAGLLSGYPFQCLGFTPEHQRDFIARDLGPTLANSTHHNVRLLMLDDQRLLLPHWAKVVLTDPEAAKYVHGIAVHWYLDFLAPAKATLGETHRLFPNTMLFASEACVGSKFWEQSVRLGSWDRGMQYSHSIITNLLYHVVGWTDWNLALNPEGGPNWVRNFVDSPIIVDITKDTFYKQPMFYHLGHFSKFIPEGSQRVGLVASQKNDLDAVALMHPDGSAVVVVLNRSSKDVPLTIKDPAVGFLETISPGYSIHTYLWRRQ

X-box-binding protein 1 = X-box-binding protein 1 (Homo sapiens, UniProt P17861); assay type: functional, Cricetulus griseus;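 further: confirmatory dose-response counter-screen serving a CHOP assay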
Sequence of X-box-binding protein 1 (P17861 whole entry): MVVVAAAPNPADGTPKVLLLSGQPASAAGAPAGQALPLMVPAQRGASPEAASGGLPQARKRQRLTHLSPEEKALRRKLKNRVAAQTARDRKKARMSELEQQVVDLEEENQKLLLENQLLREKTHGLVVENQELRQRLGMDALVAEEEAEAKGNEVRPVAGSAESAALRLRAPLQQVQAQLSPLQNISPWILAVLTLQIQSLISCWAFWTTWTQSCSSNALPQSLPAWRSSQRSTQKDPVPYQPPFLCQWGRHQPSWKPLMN

[2] = HEK-293T viability loss after treatment – luminescence, T-cell screen hits, cytotoxicity control for TCR NF-kB inhibitor project, dose response (AID 489026); assay type: functional, cell-based;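 further: cells exposed to compound about 14 hours before the viability readout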
J774.A1 = assay: Confirmation of image-based Screening Assay for Inhibitors of Phagocytosis. [Related pubchem assays (depositor defined):AID1029, AID1643]; assay type: functional, cell-based; settings: Mus musculus
[3] = biological target: Peroxisome proliferator-activated receptor gamma/Nuclear receptor coactivator 2 (Homo sapiens, UniProt P37231); assay type: functional;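 further: agonist potency for raising coactivator recruitment to the receptor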
[4] = biological target: Peroxisome proliferator-activated receptor gamma/Nuclear receptor coactivator 1 (Homo sapiens, UniProt P37231); assay type: functional;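 further: agonist potency as compounds enhance coactivator SRC-1 recruitment to PPARgamma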
[5] = biological target: Peroxisome proliferator-activated receptor gamma/Nuclear receptor coactivator 3 (Homo sapiens, UniProt P37231); assay type: functional;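 further: agonist potency for raising coactivator recruitment to the receptor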
Sequence of Peroxisome proliferator-activated receptor gamma/Nuclear receptor coactivator 3 (P37231 whole entry): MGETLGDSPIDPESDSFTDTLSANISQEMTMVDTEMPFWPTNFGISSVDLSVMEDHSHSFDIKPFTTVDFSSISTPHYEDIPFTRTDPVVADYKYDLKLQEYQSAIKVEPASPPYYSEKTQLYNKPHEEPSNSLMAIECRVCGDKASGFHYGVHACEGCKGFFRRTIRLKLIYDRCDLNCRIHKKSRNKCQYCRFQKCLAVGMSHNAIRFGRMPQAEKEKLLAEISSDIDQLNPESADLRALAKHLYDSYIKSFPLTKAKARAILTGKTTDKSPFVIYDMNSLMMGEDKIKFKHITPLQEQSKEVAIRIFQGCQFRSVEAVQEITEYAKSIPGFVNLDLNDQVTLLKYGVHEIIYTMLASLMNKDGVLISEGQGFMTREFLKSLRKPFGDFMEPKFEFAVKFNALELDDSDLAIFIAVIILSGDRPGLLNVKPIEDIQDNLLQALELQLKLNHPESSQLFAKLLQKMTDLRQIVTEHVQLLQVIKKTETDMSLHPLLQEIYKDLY
Sequence of Peroxisome proliferator-activated receptor gamma/Nuclear receptor coactivator 3 (Q9Y6Q9 whole entry, further chain): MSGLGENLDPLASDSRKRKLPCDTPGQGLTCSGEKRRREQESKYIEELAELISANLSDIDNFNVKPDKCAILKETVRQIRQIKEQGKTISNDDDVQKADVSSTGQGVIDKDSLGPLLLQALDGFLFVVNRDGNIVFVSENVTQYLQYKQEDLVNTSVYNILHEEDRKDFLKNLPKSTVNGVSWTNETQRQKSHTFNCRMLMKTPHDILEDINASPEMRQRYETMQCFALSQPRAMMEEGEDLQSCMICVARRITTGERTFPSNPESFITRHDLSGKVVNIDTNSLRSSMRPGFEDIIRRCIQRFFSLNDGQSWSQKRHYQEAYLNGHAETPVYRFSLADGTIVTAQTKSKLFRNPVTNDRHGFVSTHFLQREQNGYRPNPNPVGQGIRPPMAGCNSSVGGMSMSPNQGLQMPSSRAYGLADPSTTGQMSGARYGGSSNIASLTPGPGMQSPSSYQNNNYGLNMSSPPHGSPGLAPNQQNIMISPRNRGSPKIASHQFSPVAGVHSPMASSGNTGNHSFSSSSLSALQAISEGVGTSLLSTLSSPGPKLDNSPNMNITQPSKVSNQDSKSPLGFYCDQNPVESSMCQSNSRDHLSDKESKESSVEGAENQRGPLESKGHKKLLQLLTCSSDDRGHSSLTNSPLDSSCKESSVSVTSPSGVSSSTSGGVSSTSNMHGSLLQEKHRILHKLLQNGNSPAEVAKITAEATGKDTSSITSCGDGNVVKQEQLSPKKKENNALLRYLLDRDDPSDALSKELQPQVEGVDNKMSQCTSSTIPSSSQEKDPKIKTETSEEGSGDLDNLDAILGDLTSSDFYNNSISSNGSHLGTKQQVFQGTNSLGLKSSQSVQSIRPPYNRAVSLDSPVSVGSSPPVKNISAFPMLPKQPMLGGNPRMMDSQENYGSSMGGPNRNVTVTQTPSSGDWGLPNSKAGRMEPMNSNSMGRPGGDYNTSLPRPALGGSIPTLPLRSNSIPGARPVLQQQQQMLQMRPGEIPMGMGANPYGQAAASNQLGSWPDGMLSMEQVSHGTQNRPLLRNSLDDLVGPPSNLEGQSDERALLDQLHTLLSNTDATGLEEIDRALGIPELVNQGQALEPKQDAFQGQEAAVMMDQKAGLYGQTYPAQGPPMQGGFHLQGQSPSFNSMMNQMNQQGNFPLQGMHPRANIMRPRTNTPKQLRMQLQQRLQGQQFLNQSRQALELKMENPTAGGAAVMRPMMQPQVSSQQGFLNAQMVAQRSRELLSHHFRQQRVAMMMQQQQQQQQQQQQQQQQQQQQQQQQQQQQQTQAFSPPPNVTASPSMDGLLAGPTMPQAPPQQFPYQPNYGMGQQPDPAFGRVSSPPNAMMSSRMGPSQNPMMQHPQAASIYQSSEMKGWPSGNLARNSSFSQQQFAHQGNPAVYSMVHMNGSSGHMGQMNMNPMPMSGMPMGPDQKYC

Sequence of NS3 (A3EZJ3 whole entry): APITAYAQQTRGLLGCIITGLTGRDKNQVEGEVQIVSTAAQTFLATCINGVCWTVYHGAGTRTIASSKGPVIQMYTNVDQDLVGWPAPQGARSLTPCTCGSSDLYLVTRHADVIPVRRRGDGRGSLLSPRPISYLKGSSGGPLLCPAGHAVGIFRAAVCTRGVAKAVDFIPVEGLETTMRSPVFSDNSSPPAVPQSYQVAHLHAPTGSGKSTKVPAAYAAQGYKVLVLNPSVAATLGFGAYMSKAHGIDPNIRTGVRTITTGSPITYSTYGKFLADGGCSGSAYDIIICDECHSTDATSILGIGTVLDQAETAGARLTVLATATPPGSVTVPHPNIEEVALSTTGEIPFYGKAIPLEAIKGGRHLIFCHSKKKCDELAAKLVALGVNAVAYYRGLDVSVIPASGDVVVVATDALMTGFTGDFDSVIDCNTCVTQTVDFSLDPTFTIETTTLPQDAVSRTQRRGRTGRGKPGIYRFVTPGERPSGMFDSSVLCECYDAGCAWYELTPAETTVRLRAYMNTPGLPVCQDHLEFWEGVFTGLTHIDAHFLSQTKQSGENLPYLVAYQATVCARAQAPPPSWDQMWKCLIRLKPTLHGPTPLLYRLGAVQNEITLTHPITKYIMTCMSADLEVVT

Structure (SMILES): Cc1cc2cc(C(c3nnnn3Cc3ccco3)N3CCc4ccccc4C3)c(O)nc2cc1C (stereo not drawn)
IC50 (NS3): > 109 µM (not active)

Structure (SMILES): CCC(C)Sc1nc2c(c(=O)[nH]c(=O)n2C)n1Cc1ccc(Cl)cc1 (stereo not drawn)
Absolute IC50 (XBP1) (X-box-binding protein 1): 10 µM

Structure (SMILES): CC(C)Oc1ccccc1C1CC(=O)Nc2cc3c(cc21)OCO3 (stereo not drawn)
IC50 [2]: > 80 µM (inactive)
IC50 (J774.A1): > 25 µM (inactive)

Continued, values first:

EC50 [1]: > 50 µM (not active)
Structure (SMILES): CC(OC(=O)c1nsc(Cl)c1Cl)C(=O)NCc1cccs1 (stereo not drawn)

EC50 [3]: > 79.4 µM (not active)
EC50 [4]: > 79.4 µM (not active)
EC50 [5]: > 79.4 µM (not active)
Structure (SMILES): CCOC(=O)c1c(NC(=O)CSc2nc(C)cc(C)c2C#N)sc(C(C)=O)c1C
